Measured values: patent publication EP4371976B1, “IONIZABLE LIPIDS AND LIPID NANOPARTICLES CONTAINING THEREOF” (Certest Biotec, S.L., priority 2022, dated 2024)

Key:
[1] = RNA encapsulation efficiency of LNPs by Quant-IT Ribogreen; type: physicochemical; details: for Encaps. efficiency (%): LNPs with luciferase mRNA, ionizable lipid:non-cationic lipid:sterol:PEG-modified lipid 50:10:38.5:1.5, percentage of RNA entrapped in the LNP
Procedure: The mRNA aqueous solution was then carefully added to the ethanol solution, and the resulted solution was homogenized by pipetting up and down for 4-5 times. The resulting LNPs were immediately diluted 1:1 with Tris buffer and dialyzed overnight against Tris buffer containing 15% sucrose. The resulting LNP solution was then collected, and the encapsulated mRNA was assessed by Quant-IT® Ribogreen (Invitrogen R11490) following the manufacturer's instructions.
(§1) The LNP solution was then adjusted to a final concentration of mRNA of 100 µg/ml. Size distribution, polydispersity and Z-potential were measured by dynamic light scattering (DLS) using Malvern Zetasizer Advance Lab Blue Label. RNA encapsulation was assessed by Quant-IT® Ribogreen following the manufacturer's instructions.

[2] = Size distribution, polydispersity and Z-potential of LNPs by dynamic light scattering (Malvern Zetasizer); type: physicochemical; details: LNPs, standard formulation 50:10:38.5:1.5; DLS
Procedure: as §1

[3] = Apparent pKa of LNPs comprising the ionizable lipid (Table 6); details: standard formulation 50:10:38.5:1.5

| Encaps. efficiency (%) [1] | Z Potential (± D.E.) [mV] [2] | Apparent pKa [3] | P.D.I. [2] | Particle size/ Ø (nm) [2] | SMILES | Encaps. efficiency ([1]; Table 8, LNP 50:10:38.5:1.5, luciferase mRNA) |
| --- | --- | --- | --- | --- | --- | --- |
| 47.36% | -17.58 mV | 5.77 |  |  | CCCCCCCCOC(=O)CCSCCC(NC(=O)C(CCCCCC)CCCCCCCC)C(=O)NCCCN1CCOCC1 (stereo not drawn) [VC-LC-0176] |  |
| 70.97% | -1.54 mV | 5.85 |  |  | CCCCCCCCCCCCCCCCOC(=O)CCSCCC(NC(=O)C(CCCCCC)CCCCCCCC)C(=O)NCCN1CCN(C)CC1 (stereo not drawn) [VC-LC-0185] |  |
| 93.61% | -0.83 mV | 7.18 | 0.2 | 185.7 nm | CCCCCCCCC(CCCCCC)C(=O)NC(CCSCCC(=O)OCCCCCCC)C(=O)NCCCN(CCO)CCO (stereo not drawn) [VC-LC-0207] |  |
| 89.76% | 4.52 mV | 7.24 | 0.35 | 248 nm | CCCCCCCCCCCCCCCCOC(=O)CCSCCC(NC(=O)C(CCCCCC)CCCCCCCC)C(=O)NCCCN1CCCC1 (stereo not drawn) [VC-LC-0248] |  |
| 92.30% | -15.91 mV | 5.91 | 0.12 | 184.3 nm | CCCCCCCCCCCCCOC(=O)CCSCCC(NC(=O)C(CCCCCC)CCCCCCCC)C(=O)NCCCn1ccnc1 (stereo not drawn) [VC-LC-0256] |  |
| 41.89% | -8.47 mV | 6.21 | 0.14 | 138.8 nm | CCCCCCCCC(CCCCCC)C(=O)NC(CCSCCC(=O)OCC(CC)CCCC)C(=O)NCCCn1ccnc1 (stereo not drawn) [VC-LC-0259] |  |
| 29.52% | -10.85 mV | 6.18 | 0.14 | 173 nm | CCCCCCCCC(CCCCCC)C(=O)NC(CCSCCC(=O)OCCCCCC)C(=O)NCCCn1ccnc1 (stereo not drawn) [VC-LC-0268] |  |
| 94.63% | 7.79 mV | 7.06 | 0.18 | 177.7 nm | CCCCCCCC/C=C\CCCCCCCC(=O)NC(CCSCCC(=O)OCCCCCCCC(C)C)C(=O)NCCCN(CCO)CCO (stereo not drawn) [VC-LC-0292] |  |
| 57.64% | -13.45 mV | 6.09 | 0.15 | 193.3 nm | CCCCCCCCCCCCCCOC(=O)CCSCC(CC(=O)NCCCn1ccnc1)C(=O)OC(CCCCCCCC)CCCCCCCC (stereo not drawn) [VC-LC-0299] |  |
| 45.62% | -12.78 mV | 5.70 | 0.09 | 184.2 nm | CCCCCCCCC(CCCCCCCC)OC(=O)C(CSCCC(=O)OCCCCCC)CC(=O)NCCCn1ccnc1 (stereo not drawn) [VC-LC-0306] |  |
| 62.80% | -5.38 mV | 6.64 | 0.14 | 146.3 nm | CCCCCCCC/C=C\CCCCCCCC(=O)NC(CCSCC(=O)OCCCCCCCCCCCCC)C(=O)NCCCN1CCOCC1 (stereo not drawn) [VC-LC-0338] |  |
| 41.05% | -12.18 mV | 5.29 | 0.18 | 169.3 nm | CCCCCCCC/C=C\CCCCCCCCOC(=O)CCSCCC(NC(=O)C(CCCCCC)CCCCCCCC)C(=O)NCCCN1CCOCC1 (stereo not drawn) [VC-LC-0361] |  |
| 78.29% | -14.33 mV | 6.38 | 0.13 | 116.8 nm | CCCCCCCCC(CCCCCCCC)OC(=O)C(CCSCCC(=O)OCCCCCCCC(C)C)C(=O)NCCCn1ccnc1 (stereo not drawn) [VC-LC-0364] |  |
| 66.86% | -17.43 mV | 6.33 | 0.24 | 124.1 nm | CCCCCCCCC(CCCCCCCC)OC(=O)C(CCSCCC(=O)OCC(CC)CCCC)C(=O)NCCCn1ccnc1 (stereo not drawn) [VC-LC-0365] |  |
| 89.18% | -13.24 mV | 6.33 | 0.16 | 122.6 nm | CCCCCCCCCCCCOC(=O)CCSCCC(C(=O)NCCCn1ccnc1)C(=O)OC(CCCCCCCC)CCCCCCCC (stereo not drawn) [VC-LC-0366] |  |
| 92.05% | -10.72 mV | 6.02 | 0.15 | 137.6 nm | CCCCCCCCCCCCCCCCOC(=O)CCSCCC(C(=O)NCCCn1ccnc1)C(=O)OC(CCCCCCCC)CCCCCCCC (stereo not drawn) [VC-LC-0369] |  |
| 83.80% | -1.14 mV | 6.10 | 0.24 | 192.8 nm | CCCCCCCC#CCOC(=O)CCSCCC(NC(=O)CCCCCCCCCCCCCCCCC)C(=O)NCCCN1CCOCC1 (stereo not drawn) [VC-LC-0390] |  |
| 40.58% | -11.14 mV | 4.72 | 0.19 | 136.1 nm | CCCCCCCCCCCCCOC(=O)CCSCCC(NC(=O)C(CCCCCC)CCCCCCCC)C(=O)NCCN1CCOCC1 (stereo not drawn) [VC-LC-0392] |  |
| 60.22% | -12.36 mV | 4.66 | 0.1 | 167.1 nm | CCCCCCCCCCCCC(CCCCCCCCCC)COC(=O)CCSCCC(NC(=O)C(CCCCCC)CCCCCCCC)C(=O)NCCN1CCOCC1 (stereo not drawn) [VC-LC-0407] |  |
| 41.23% | -15.07 mV | 4.83 | 0.25 | 168.1 nm | CCCCCCCC#CCOC(=O)CCSCCC(NC(=O)C(CCCCCC)CCCCCCCC)C(=O)NCCN1CCOCC1 (stereo not drawn) [VC-LC-0408] |  |
| 65.37% | -8.34 mV | 5.84 | 0.11 | 185.3 nm | CCCCCCCCCCCCC(CCCCCCCCCC)COC(=O)CCSCCC(NC(=O)C(CCCCCC)CCCCCCCC)C(=O)NC1CCN(C)CC1 (stereo not drawn) [VC-LC-0428] |  |
| 97.01% | 3.83 mV |  | 0.15 | 129.9 nm | CCCCCCCCCCCCCOC(=O)CCSCC(CC(=O)NC1CCN(C)CC1)C(=O)OCC(CCCCCC)CCCCCCCC (stereo not drawn) [VC-LC-0524] |  |
| 97.90% | 3.68 mV |  | 0.16 | 124.7 nm | CCCCCCCCC(CCCCCC)COC(=O)C(CSCCC(=O)OCCCCCCCC(C)C)CC(=O)NC1CCN(C)CC1 (stereo not drawn) [VC-LC-0526] |  |
| 98.83% | 4.55 mV |  | 0.2 | 137.4 nm | CCCCCCCCCCCCOC(=O)CCSCC(CC(=O)NC1CCN(C)CC1)C(=O)OCC(CCCCCC)CCCCCCCC (stereo not drawn) [VC-LC-0528] |  |
| 97.41% | 7.65 mV |  | 0.26 | 164 nm | CCCCCCCCCCCCCCCCCCOC(=O)CCSCC(CC(=O)NC1CCN(C)CC1)C(=O)OCC(CCCCCC)CCCCCCCC (stereo not drawn) [VC-LC-0530] |  |
| 98.54% | 9.15 mV |  | 0.19 | 158.6 nm | CCCCCCCCCCCCCCCCOC(=O)CCSCC(CC(=O)NC1CCN(C)CC1)C(=O)OCC(CCCCCC)CCCCCCCC (stereo not drawn) [VC-LC-0531] |  |
| 98.35% | 5.74 mV |  | 0.19 | 178.1 nm | CCCCCCCCCCCCCCCCCCCCCCOC(=O)CCSCC(CC(=O)NC1CCN(C)CC1)C(=O)OCC(CCCCCC)CCCCCCCC (stereo not drawn) [VC-LC-0533] |  |

| SMILES | Encaps. efficiency (%) [1] | Z Potential (± D.E.) [mV] [2] | Apparent pKa [3] | P.D.I. [2] | Particle size/ Ø (nm) [2] | Encaps. efficiency ([1]; Table 8, LNP 50:10:38.5:1.5, luciferase mRNA) |
| --- | --- | --- | --- | --- | --- | --- |
| CCCCCCCCCCCCCCCCCCOC(=O)CCSCCC(NC(=O)CCCCCCCCCCCCCCCCC)C(=O)NCCCN1CCOCC1 (stereo not drawn) [VC-LC-0380] | 71.74% | -17.08 mV |  | 0.25 | 170.6 nm |  |
| CCCCCCCCCCCCCCCCCC(=O)NC(CCSCCC(=O)OCCCCCCCCCCCCC)C(=O)NC1CCN(C)CC1 (stereo not drawn) [VC-LC-0435] | 99.22% | 8.58 mV |  | 0.2 | 182.6 nm |  |
| CCCCCCCC#CCOC(=O)CCSCCC(NC(=O)CCCCCCCCCCCCCCCCC)C(=O)NC1CCN(C)CC1 (stereo not drawn) [VC-LC-0437] | 99.92% | 7.76 mV |  | 0.23 | 152 nm |  |
| CCCCCCCC/C=C\CCCCCCCCOC(=O)CCSCCC(C(=O)NC1CCN(C)CC1)C(=O)OC(CCCCCCCC)CCCCCCCC (stereo not drawn) [VC-LC-0443] | 86.01% | -2.92 mV |  | 0.13 | 181.3 nm | 86.01% |
| CCCCCCCCCCCCCOC(=O)CCSCCC(NC(=O)C(CCCCCCCC)CCCCCCCCCC)C(=O)NC1CCN(C)CC1 (stereo not drawn) [VC-LC-0556] | 54.53% | -7.57 mV |  | 0.14 | 156.7 nm |  |
| CCCCCCCCCCCCOC(=O)CCSCCC(C(=O)NCCCN1CCOCC1)C(=O)OCC(CCCCCC)CCCCCCCC (stereo not drawn) [VC-LC-0609] | 54.21% | -20.42 mV |  | 0.16 | 168.6 nm |  |
